Patent US20090311237A1, “Combination therapy using a soluble hyaluronidase and a bisphosphonate” (priority 2008, published 2009)
Where “and” joins values, the source holds several entries; their conditions need not be identical. Equal values may be shown once. Read-outs that look alike come from different tables or passages of the source.

Experiment: Phase 1 Stage 1 clinical pharmacokinetics of SC ZA co-administered with rHuPH20
Assay type: in vivo, human
Conditions: for half-life / AUC(0-t) / Cmax / AUC(0-inf) / Tmax: human, serum; for half-life: read-out: T½ λz (converted); for AUC(0-inf): read-out: AUC (0-inf); for Tmax: read-out: Tmax
Method: A pharmacokinetic study of zoledronic acid (ZA) co-administered with rHuPH20 in human subjects was conducted. The primary objective of the study was to determine the bioavailability of zoledronic acid dosed via subcutaneous (SC) co-administration with human recombinant hyaluronidase PH20 (rHuPH20). […] The patients were administered the prescribed dosage formulations as follows: Cohorts 1-5 were administered a single subcutaneous infusion in a dosage volume of 100 ml at a rate of 3 mL/min. […] The dosing solution is administered via needle or catheter into the SC space of the left anterior thigh (midway between the anterior iliac crest and the cephalad border of the patella). For cohorts 1-5, the dosing solutions were administered by a controlled rate infusion pump at approximately 3 mL/minute. […] The dosing solutions were administered by syringe push bolus injection. […] Serum concentration of ZA was determined using a qualified LC-MS-MS assay after derivatization with diazomethane (Zhu, L S et al. (2006) Rapid Commun. […] The assay range was from 2.0 to 400 ng/mL with a lower limit of quantitation (LLOQ) at 2.0 ng/mL. […] Non-compartmental analysis was used for derivation of primary and secondary pharmacokinetic (PK) parameters. […] Summary statistics (mean, standard deviation, and median) were calculated using JMP or Microsoft Excel.

[1] = ZA 2 mg SC + 24000 U rHuPH20, mean, n=3
[2] = ZA 2 mg SC + 24000 U rHuPH20, median, n=3
[3] = ZA 2 mg SC, 100 mL, 24000 Units rHuPH20, n=3
[4] = ZA 5 mg SC + 24000 U rHuPH20, individual subjects
[5] = ZA 5 mg SC + 24000 U rHuPH20, mean, n=3
[6] = ZA 5 mg SC + 24000 U rHuPH20, median, n=3
[7] = ZA 5 mg SC, 100 mL, 24000 Units rHuPH20, n=3
[8] = ZA 0.25-5 mg SC, 100 mL, 24000 Units rHuPH20, n=15
[9] = sc, 0.0196 mg/kg, Subj 27, ZA 0.0196 mg/kg SC, inf […], PH20 23976 U
[10] = sc, 0.0339 mg/kg, Subj 29, ZA 0.0339 mg/kg SC, inf 0.556 hr, PH20 24000 U
[11] = sc, 0.0608 mg/kg, Subj 68, ZA 0.0608 mg/kg SC, inf […], PH20 2880 U
[12] = sc, 0.0653 mg/kg, Subj 41, ZA 0.0653 mg/kg SC, inf […], PH20 12216 U
[13] = sc, 0.0691 mg/kg, Subj 39, ZA 0.0691 mg/kg SC, inf 0.552 hr, PH20 23856 U
[14] = sc, 0.0706 mg/kg, Subj 38, ZA 0.0706 mg/kg SC, inf 0.554 hr, PH20 23952 U
[15] = sc, 0.0717 mg/kg, Subj 67, ZA 0.0717 mg/kg SC, inf […], PH20 2880 U
[16] = sc, 0.0776 mg/kg, Subj 70, ZA 0.0776 mg/kg SC, inf […], PH20 2928 U
[17] = sc, 0.0781 mg/kg, Subj 71, ZA 0.0781 mg/kg SC, inf […], PH20 6000 U

O=P(O)(O)C(O)(Cn1ccnc1)P(=O)(O)O [ZA, 1-hydroxy-2-(1H-imidazol-1-yl)ethylidene-1,1-bisphosphonic acid]
T½elim (ZA 2 mg SC + 24000 U rHuPH20, individual subjects): 12.72 h (2×) and 22.02 h | AUC (0-∞)/D [1]: 0.00791 kg·h/mL | Cmax/D [1]: 0.00176 kg/mL | T½elim [1]: 15.82 h | AUC (0-∞)/D [2]: 0.00809 kg·h/mL | Cmax/D [2]: 0.00175 kg/mL | T½elim [2]: 12.72 h | MAT (mean absorption time = SC MRT − IV MRT) (ZA 2 mg SC, 100 mL, 24000 Units rHuPH20, individual subjects): 0.47 h and 0.94 h and 1.39 h | MAT, Mean for the dose group [3]: 0.93 h | MAT, Median for the dose group [3]: 0.94 h | AUC (0-12h) [4]: 477.36 ng·h/mL and 575.89 ng·h/mL | AUC (0-∞) [4]: 729.31 ng·h/mL | AUC (0-∞)/D [4]: 0.00789 kg·h/mL and 0.00901 kg·h/mL and 0.01049 kg·h/mL | Cmax/D [4]: 0.00167 kg/mL and 0.00165 kg/mL and 0.00211 kg/mL | MRT [4]: 13.81 h | T½elim [4]: 23.36 h and 24.45 h and 26.05 h | AUC (0-∞)/D [5]: 0.00913 kg·h/mL | Cmax/D [5]: 0.00181 kg/mL | T½elim [5]: 24.62 h | AUC (0-∞)/D [6]: 0.00901 kg·h/mL | Cmax/D [6]: 0.00167 kg/mL | T½elim [6]: 24.45 h | MAT (mean absorption time = SC MRT − IV MRT) (ZA 5 mg SC, 100 mL, 24000 Units rHuPH20, individual subjects): 1.74 h and 4.61 h and 3.46 h | MAT, Mean for the dose group [7]: 3.27 h | MAT, Median for the dose group [7]: 3.46 h | MAT, Mean for all dose groups [8]: 1.64 h | MAT, Median for all dose groups [8]: 1.39 h | half-life (0.082 mg/kg, Subj 63, ZA 0.0820 mg/kg SC, inf 0.250 hr, PH20 6000 U): 20.5 h | AUC(0-t) (sc, 0.0196 mg/kg, AUC (0-12 h), Subj 27, ZA 0.0196 mg/kg SC, inf […], PH20 23976 U): 104 ng·h/mL | AUC(0-t) (sc, 0.0196 mg/kg, AUC (0-24 h), Subj 27, ZA 0.0196 mg/kg SC, inf […], PH20 23976 U): 116 ng·h/mL | AUC(0-t) (sc, 0.0196 mg/kg, AUC (0-48 h), Subj 27, ZA 0.0196 mg/kg SC, inf […], PH20 23976 U): 119 ng·h/mL | Cmax [9]: 25 ng/mL | AUC(0-inf) [9]: 120 ng·h/mL | Tmax [9]: 0.72 h | half-life (sc, 0.0196 mg/kg): 6.53 h | AUC(0-t) (sc, 0.0339 mg/kg, AUC (0-12 h), Subj 29, ZA 0.0339 mg/kg SC, inf 0.556 hr, PH20 24000 U): 217 ng·h/mL | AUC(0-t) (sc, 0.0339 mg/kg, AUC (0-24 h), Subj 29, ZA 0.0339 mg/kg SC, inf 0.556 hr, PH20 24000 U): 231 ng·h/mL | AUC(0-t) (sc, 0.0339 mg/kg, AUC (0-48 h), Subj 29, ZA 0.0339 mg/kg SC, inf 0.556 hr, PH20 24000 U): 236 ng·h/mL | Cmax [10]: 62.8 ng/mL | AUC(0-inf) [10]: 241 ng·h/mL | Tmax [10]: 1.29 h | AUC(0-t) (sc, 0.0608 mg/kg, AUC (0-12 h), Subj 68, ZA 0.0608 mg/kg SC, inf […], PH20 2880 U): 456 ng·h/mL | AUC(0-t) (sc, 0.0608 mg/kg, AUC (0-24 h), Subj 68, ZA 0.0608 mg/kg SC, inf […], PH20 2880 U): 503 ng·h/mL | AUC(0-t) (sc, 0.0608 mg/kg, AUC (0-48 h), Subj 68, ZA 0.0608 mg/kg SC, inf […], PH20 2880 U): 557 ng·h/mL | Cmax [11]: 144 ng/mL | AUC(0-inf) [11]: 630 ng·h/mL | Tmax [11]: 1 h | half-life (sc, 0.0608 mg/kg): 27.9 h | AUC(0-t) (sc, 0.0653 mg/kg, AUC (0-12 h), Subj 41, ZA 0.0653 mg/kg SC, inf […], PH20 12216 U): 487 ng·h/mL | AUC(0-t) (sc, 0.0653 mg/kg, AUC (0-24 h), Subj 41, ZA 0.0653 mg/kg SC, inf […], PH20 12216 U): 531 ng·h/mL | AUC(0-t) (sc, 0.0653 mg/kg, AUC (0-48 h), Subj 41, ZA 0.0653 mg/kg SC, inf […], PH20 12216 U): 597 ng·h/mL | Cmax [12]: 141 ng/mL | AUC(0-inf) [12]: 736 ng·h/mL | Tmax [12]: 1.01 h | half-life (sc, 0.0653 mg/kg): 42.8 h | AUC(0-t) (sc, 0.0691 mg/kg, AUC (0-12 h), Subj 39, ZA 0.0691 mg/kg SC, inf 0.552 hr, PH20 23856 U): 574 ng·h/mL | AUC(0-t) (sc, 0.0691 mg/kg, AUC (0-24 h), Subj 39, ZA 0.0691 mg/kg SC, inf 0.552 hr, PH20 23856 U): 619 ng·h/mL | AUC(0-t) (sc, 0.0691 mg/kg, AUC (0-48 h), Subj 39, ZA 0.0691 mg/kg SC, inf 0.552 hr, PH20 23856 U): 667 ng·h/mL | Cmax [13]: 147 ng/mL | AUC(0-inf) [13]: 727 ng·h/mL | Tmax [13]: 0.79 h | half-life (sc, 0.0691 mg/kg): 26.1 h | AUC(0-t) (sc, 0.0706 mg/kg, AUC (0-12 h), Subj 38, ZA 0.0706 mg/kg SC, inf 0.554 hr, PH20 23952 U): 477 ng·h/mL | AUC(0-t) (sc, 0.0706 mg/kg, AUC (0-24 h), Subj 38, ZA 0.0706 mg/kg SC, inf 0.554 hr, PH20 23952 U): 524 ng·h/mL | AUC(0-t) (sc, 0.0706 mg/kg, AUC (0-48 h), Subj 38, ZA 0.0706 mg/kg SC, inf 0.554 hr, PH20 23952 U): 580 ng·h/mL | Cmax [14]: 117 ng/mL | AUC(0-inf) [14]: 637 ng·h/mL | Tmax [14]: 1.3 h | AUC(0-t) (sc, 0.0717 mg/kg, AUC (0-12 h), Subj 67, ZA 0.0717 mg/kg SC, inf […], PH20 2880 U): 565 ng·h/mL | AUC(0-t) (sc, 0.0717 mg/kg, AUC (0-24 h), Subj 67, ZA 0.0717 mg/kg SC, inf […], PH20 2880 U): 630 ng·h/mL | AUC(0-t) (sc, 0.0717 mg/kg, AUC (0-48 h), Subj 67, ZA 0.0717 mg/kg SC, inf […], PH20 2880 U): 683 ng·h/mL | Cmax [15]: 156 ng/mL | AUC(0-inf) [15]: 725 ng·h/mL | Tmax [15]: 0.74 h | half-life (sc, 0.0717 mg/kg): 18.3 h | AUC(0-t) (sc, 0.0776 mg/kg, AUC (0-12 h), Subj 70, ZA 0.0776 mg/kg SC, inf […], PH20 2928 U): 573 ng·h/mL | AUC(0-t) (sc, 0.0776 mg/kg, AUC (0-24 h), Subj 70, ZA 0.0776 mg/kg SC, inf […], PH20 2928 U): 616 ng·h/mL | AUC(0-t) (sc, 0.0776 mg/kg, AUC (0-48 h), Subj 70, ZA 0.0776 mg/kg SC, inf […], PH20 2928 U): 658 ng·h/mL | Cmax [16]: 215 ng/mL | AUC(0-inf) [16]: 690 ng·h/mL | Tmax [16]: 0.68 h | half-life (sc, 0.0776 mg/kg): 19.4 h | AUC(0-t) (sc, 0.0781 mg/kg, AUC (0-12 h), Subj 71, ZA 0.0781 mg/kg SC, inf […], PH20 6000 U): 592 ng·h/mL | AUC(0-t) (sc, 0.0781 mg/kg, AUC (0-24 h), Subj 71, ZA 0.0781 mg/kg SC, inf […], PH20 6000 U): 629 ng·h/mL | AUC(0-t) (sc, 0.0781 mg/kg, AUC (0-48 h), Subj 71, ZA 0.0781 mg/kg SC, inf […], PH20 6000 U): 665 ng·h/mL | Cmax [17]: 198 ng/mL | AUC(0-inf) [17]: 693 ng·h/mL | Tmax [17]: 0.88 h
